{
  "source": "patent US12661338B2",
  "about": "“Heterocyclic compounds as modulators of beta-catenin / TCF4 interaction” (AGENCY FOR SCIENCE, TECHNOLOGY AND RESEARCH, priority 2019, dated 2026)",
  "type_in_all_cases": "cell-based",
  "key": {"CRC948": {"test_system": "CRC948", "assay": "Viability of primary patient-derived colorectal cancer cell line"}, "CRC2367": {"test_system": "CRC2367", "assay": "Viability of primary patient-derived colorectal cancer cell line"}, "CRC1489": {"test_system": "CRC1489", "assay": "Viability of primary patient-derived colorectal cancer cell line"}, "CRC2413": {"test_system": "CRC2413", "assay": "Viability of primary patient-derived colorectal cancer cell line"}, "[1]": {"test_system": "Myc reporter (Luc)-HCT116 cells", "assay": "Myc signalling reporter dose response", "conditions": "Homo sapiens, HCT-116, 24 hr", "method": "The Myc reporter (Luc)-HCT116 cells were seeded as 25,000 cells in 100 μL assay medium per well in 96-well plates (Corning cat. #3903, Falcon cat. #353072). The assay medium consists of the growth medium without G-418. The next day, 4-fold dilutions of the compounds in DMSO were added to the cells at a final concentration of 1% DMSO. After 24 hr incubation, the viability of the cells was determined with PrestoBlue cell viability reagent while the luciferase reporter activity was determined with Steady-Glo luciferase reagent.\n(§1) The average signal from DMSO treated wells was calculated for each plate, and the signal from each treatment well was normalized against the average DMSO signal from the respective plate. The normalized values were plotted against the concentrations tested using GraphPad Prism 5, and the EC50 values were determined through either three- or four-parameter nonlinear regression."}, "SW480 cells": {"test_system": "SW480 cells", "assay": "Dose response viability of CRC cells (CellTiter-Glo)", "conditions": "Homo sapiens, 24 hr", "method": "(§2) HCT116, DLD-1, and SW480 cells were seeded as 5,000 cells in 100 μL growth medium per well in 96-well plates (Corning cat. #3903). The next day, 5-fold dilutions of the compounds in DMSO were added to the cells at a final concentration of 1% DMSO. After 24 hr incubation, the viability of the cells was determined with CellTiter-Glo luminescent cell viability reagent (Promega cat. #G7573) according to the manufacturer's protocol.\nas §1"}, "DLD-1 cells": {"test_system": "DLD-1 cells", "assay": "Dose response viability of CRC cells (CellTiter-Glo)", "conditions": "Homo sapiens, 24 hr", "method": "as §2, §1"}, "HCT116 cells [2]": {"test_system": "HCT116 cells", "assay": "Dose response viability of CRC cells (CellTiter-Glo)", "conditions": "Homo sapiens, HCT-116, 24 hr", "method": "as §2, §1"}, "CRC1837": {"test_system": "CRC1837", "assay": "Viability of primary patient-derived colorectal cancer cell line", "conditions": "CRC1837, Liver Met"}, "CRC1775": {"test_system": "CRC1775", "assay": "Viability of primary patient-derived colorectal cancer cell line"}, "CRC1177": {"test_system": "CRC1177", "assay": "Viability of primary patient-derived colorectal cancer cell line"}, "CRC1258": {"test_system": "CRC1258", "assay": "Viability of primary patient-derived colorectal cancer cell line", "conditions": "CRC1258, Liver Met"}, "CRC1707": {"test_system": "CRC1707", "assay": "Viability of primary patient-derived colorectal cancer cell line"}, "HCT116 cells [3]": {"test_system": "HCT116 cells", "assay": "Proliferation assay (CellTiter-Glo)", "conditions": "10 μM daily", "method": "HCT 116 cells were seeded as 3,000 cells in 100 μL growth medium per well in 96-well plates (Corning cat. #3903) and allowed to attached overnight. Cells were then treated continuously with compounds at a final concentration of 10 μM, 0.1% DMSO, for 4 days with daily medium change. Cell proliferation each day was determined using CellTiter-Glo luminescent cell viability assay (Promega cat. #G7573) according to the manufacturer's protocol."}, "CRC1846": {"test_system": "CRC1846", "assay": "Viability of primary patient-derived colorectal cancer cell line"}, "HCT116 cells [4]": {"test_system": "HCT116 cells", "assay": "Colony formation assay", "conditions": "HCT116, 30 μM, 7 days", "method": "FIG. 4 depicts the inhibit growth by hit compounds and their effects on stemness of Wnt driven cells. (FIG. 4A) Growth curves of HCT116 cells treated daily with compounds at 10 μM. One-way repeated measures ANOVA with Dunnett's multiple comparison test was carried out to determine the significance between compound treatment and DMSO control. *P<0.05, ***P<0.001. (FIG. 4B) Effects of hit compounds on colony formation of HCT116 cells. HCT116 cells were grown in 6-well plates and treated with either DMSO or the compounds at 30 μM for 7 days, following which the cells were fixed and stained with crystal violet. The number of colonies obtained were counted. Two-tailed Student's t-test was carried out between compound treatment and DMSO control. ***P<0.001. (FIG. 4C) Effects of hit compounds on spheroid formation of HCT116 cells. HCT116 cells were grown in ultra-low attachment 96-well plates and treated with either DMSO or the compounds at 30 µM for 14 days, following which the number of spheroids ≥200 μm in size was determined. Two-tailed Student's t-test was carried out between compound treatment and DMSO control. ***P<0.001, **P<0.01. Scale bar represents 1 mm. (FIG. 4D) NSG mice xenografted with HCT116 cells were treated with vehicle control (n=6) or 50 mg/kg GB1874 (n=6) via i.p. every other day for 2 weeks. Tumor volumes were monitored over time. […]"}, "STF cells": {"test_system": "STF cells", "assay": "Viability (toxicity) of STF reporter cells, CCK-8", "conditions": "Table 3; STF reporter cell line", "method": "(§3) The Wnt STF reporter cells were seeded as 20,000 cells in 100 μL culture medium per well in 96-well plates (Corning cat. #3903, Falcon cat. #353072). The next day, 5-fold dilutions of the compounds in DMSO were added to the cells at a final concentration of 1% DMSO. The cells were also stimulated with 500 ng/mL recombinant human Wnt3A (RnD systems, cat. #5036-WN-010). After 24 hr incubation, the viability of the cells was determined with cell counting kit-8 (CCK-8, Dojindo cat. #CK04) cell viability reagent according to the manufacturer's protocol while the TOPFlash reporter activity was determined with Steady-Glo luciferase reagent.\nas §1"}, "[5]": {"test_system": "Wnt target genes in HCT116 CRC cells", "assay": "Expression of beta-catenin (CTNNB1) and Wnt target genes in HCT116 CRC cells", "method": "The effects of the GB1874 analogues were tested on the expression of Wnt target genes in HCT116 CRC cells."}, "[6]": {"test_system": "Wnt signalling (TOPFlash reporter, STF cells)", "assay": "Wnt STF TOPFlash reporter dose response (Wnt3A-stimulated)", "method": "Wnt STF reporter cells (HEK 293 cells stably transfected with TOPFlash reporter) and STF3A reporter cells (STF cells with constitutive secretion of Wnt3A) were kind gifts from David Virshup (Duke-NUS Graduate Medical School, Singapore). HCT116, DLD-1, and SW480 cell lines were obtained from ATCC. The Hippo pathway TEAD reporter (cat. #60618) and Myc signalling pathway reporter (cat. #60520) cells lines were purchased from BPS Bioscience, Inc.\nas §3, §1"}},
  "note": "Like-named read-outs stand apart in the source and are kept apart here.",
  "data": [
    {"compound": "CCc1ccc(OCc2nnc(SC3CCCC3=O)n2C(C)c2ccccc2)cc1", "note": "(stereo not shown) [GB1874]", "values": [
      {"measurement": "EC50", "setting": "CRC948", "value": 17, "unit": "µM"},
      {"measurement": "EC50", "setting": "CRC2367", "value": 20, "unit": "µM"},
      {"measurement": "EC50", "setting": "CRC1489", "value": 41, "unit": "µM"},
      {"measurement": "EC50", "setting": "CRC2413", "value": 16, "unit": "µM"},
      {"measurement": "IC50", "setting": "[1]", "value": 32, "unit": "µM"},
      {"measurement": "EC50", "setting": "SW480 cells", "value": 24, "unit": "µM"},
      {"measurement": "EC50", "setting": "DLD-1 cells", "value": 28, "unit": "µM"},
      {"measurement": "EC50", "setting": "HCT116 cells [2]", "value": 45, "unit": "µM"},
      {"measurement": "EC50", "setting": "CRC1837", "value": 21, "unit": "µM"},
      {"measurement": "EC50", "setting": "CRC1775", "value": 74, "unit": "µM"},
      {"measurement": "EC50", "setting": "CRC1177", "value": 19, "unit": "µM"},
      {"measurement": "EC50", "setting": "CRC1258", "value": 27, "unit": "µM"},
      {"measurement": "EC50", "setting": "CRC1707", "value": 19, "unit": "µM"},
      {"measurement": "growth of HCT116 cells", "setting": "HCT116 cells [3]", "value": "effectively inhibited the growth of HCT116 cells"},
      {"measurement": "EC50", "setting": "CRC1846", "value": 17, "unit": "µM"},
      {"measurement": "colony forming efficiency", "setting": "HCT116 cells [4]", "value": "markedly reduce survival of the cancer stem-like cells"},
      {"measurement": "IC50", "setting": "STF cells", "value": 66, "unit": "µM"},
      {"measurement": "beta-catenin (CTNNB1) gene expression", "setting": "[5]", "value": "lesser effect"},
      {"measurement": "expression of Wnt target genes AXIN2, BIRC5, BMP4, CCND1", "setting": "[5]", "value": "potently inhibit Wnt target genes"},
      {"measurement": "IC50", "setting": "[6]; Table 1, STF reporter cells, 500 ng/mL Wnt3A, 24 hr, read-out: IC50 Wnt (STF)", "value": 11, "unit": "µM"},
      {"measurement": "IC50", "setting": "[6]; Table 3, STF reporter cell line, read-out: STF Inhibition IC50", "value": 6.8, "unit": "µM"},
      {"measurement": "IC50", "setting": "[6]; unit M, read-out: STF IC50", "value": 6.8, "unit": "µM"}
    ]}
  ]
}
